Experimental findings from US20170150719A1, “FUNGICIDAL PYRAZOLES AND THEIR MIXTURES” (E I DU PONT DE NEMOURS AND COMPANY, priority 2010, published 2017) are described below.

One assay concerns Septoria tritici. In words: Test F: wheat leaf blotch, preventive spray on wheat seedlings, visual disease rating. The format is in vivo. Particulars: 100 = 100% disease control; for Test F rating (disease control) / pest or weed control at 200 µg/mL: 0 = no disease control relative to the controls; for Test F rating (% disease control): preventive spray, rating without asterisk; for pest or weed control at 200 µg/mL: Zymoseptoria tritici. An excerpt:
(§1) A hyphen (-) indicates no test results.

Assay [1] relates to Puccinia recondita f. sp. tritici. In words: Test G: wheat leaf rust, spray after inoculation (curative) on wheat seedlings, visual disease rating. Format: in vivo. Particulars: 100 = 100% disease control; for Test G rating (disease control) / pest or weed control at 200 µg/mL: sprayed after inoculation, 0 = no disease control; for Test G rating (% disease control): spray after inoculation, rating without asterisk.
From the text: as §1

For assay [2] the test system is unchanged. Nature of the assay: Test H: wheat leaf rust, preventive spray on wheat seedlings, visual disease rating. Particulars: 100 = 100% disease control; for Test H rating (disease control) / Test H rating (% disease control): wheat leaf rust; for Test H rating (disease control): sprayed the day before inoculation; for Test H rating (disease control) / pest or weed control at 200 µg/mL: 0 = no disease control; for Test H rating (% disease control): preventive spray, rating without asterisk; for pest or weed control at 200 µg/mL: read-out: Test H rating (disease control), wheat leaf rust, sprayed the day before inoculation.

The test system of a further assay is Botrytis cinerea. Nature of the assay: Test A: tomato Botrytis, preventive spray on tomato seedlings, visual disease rating. Particulars: 100 = 100% disease control; for Test A rating (disease control) / Test A rating (% disease control): tomato Botrytis; for Test A rating (disease control) / pest or weed control at 200 µg/mL: 0 = no disease control relative to the controls; for Test A rating (% disease control): preventive spray, 0 = no control relative to controls, rating without asterisk; for pest or weed control at 200 µg/mL: Botrytis cinerea, in Solanum lycopersicum, read-out: Test A rating (disease control), tomato Botrytis.

The next assay concerns Alternaria solani. Nature of the assay: Test B: tomato early blight, preventive spray on tomato seedlings, visual disease rating. Particulars: for Test B rating (disease control) / Test B rating (% disease control): tomato early blight, 100 = 100% disease control; for Test B rating (disease control): 0 = no disease control relative to the controls; for Test B rating (% disease control): preventive spray, rating without asterisk; for pest or weed control at 200 µg/mL: Alternaria solani, in Solanum lycopersicum, read-out: Test B rating (disease control).

Assay [3] has as its system Blumeria graminis f. sp. tritici. In words: Test I: wheat powdery mildew, preventive spray on wheat seedlings, visual disease rating. Particulars: 100 = 100% disease control; for Test I rating (disease control) / Test I rating (% disease control): wheat powdery mildew; for Test I rating (disease control) / pest or weed control at 200 µg/mL: 0 = no disease control relative to the controls; for Test I rating (% disease control): preventive spray, rating without asterisk; for pest or weed control at 200 µg/mL: Blumeria graminis, in Triticum aestivum, read-out: Test I rating (disease control), wheat powdery mildew.

The next assay concerns Septoria nodorum. In words: Test E: Septoria glume blotch, preventive spray on wheat seedlings, visual disease rating. Particulars: 100 = 100% disease control; for Test E rating (disease control): Septoria glume blotch; for Test E rating (disease control) / pest or weed control at 200 µg/mL: 0 = no disease control relative to the controls; for Test E rating (% disease control): Septoria glume blotch on wheat, preventive spray, rating without asterisk; for pest or weed control at 200 µg/mL: Parastagonospora nodorum, in Triticum aestivum, read-out: Test E rating (disease control), Septoria glume blotch.

Method for Botrytis cinerea: (§2) General protocol for preparing test suspensions for Tests A-I: the test compounds were first dissolved in acetone in an amount equal to 3% of the final volume and then suspended at the desired concentration (in ppm) in acetone and purified water (50/50 mix by volume) containing 250 ppm of the surfactant Trem® 014 (polyhydric alcohol esters). The resulting test suspensions were then used in Tests A-I. Each test was conducted in triplicate, and the results were averaged. Spraying a 200 ppm test suspension to the point of run-off on the test plants was the equivalent of a rate of about 800 g/ha. Unless otherwise indicated, the rating values indicate a 200 ppm test suspension was used. (An asterisk “*” next to the rating value indicates a 40 ppm test suspension was used.)
The test suspension was sprayed to the point of run-off on tomato seedlings. The following day the seedlings were inoculated with a spore suspension of Botrytis cinerea (the causal agent of tomato Botrytis) and incubated in saturated atmosphere at 20° C. for 48 h, and then moved to a growth chamber at 24° C. for 3 additional days, after which time visual disease ratings were made.
Method for Septoria nodorum: as §2
The test suspension was sprayed to the point of run-off on wheat seedlings. The following day the seedlings were inoculated with a spore suspension of Septoria nodorum (the causal agent of Septoria glume blotch) and incubated in a saturated atmosphere at 24° C. for 48 h, and then moved to a growth chamber at 20° C. for 9 days, after which time visual disease ratings were made.

Consider `COc1cc(F)c(-c2c(C)nn(C)c2Nc2c(F)cc(C#N)cc2F)c(F)c1` [compound 20], for which, in the assay on Septoria tritici, the “Test F rating (disease control)” value is 99%. The “Test G rating (disease control)” value in assay [1] is recorded as 0%. The “Test H rating (disease control)” value in assay [2] worked out at 68%. In addition, the “Test A rating (disease control)” value with Botrytis cinerea amounted to 100%. In addition, the “Test B rating (disease control)” value in the assay with Alternaria solani amounted to 100%. The “Test I rating (disease control)” value in assay [3] came to 13%. For the same compound, in the assay on Septoria nodorum, the “Test E rating (disease control)” value is reported as 40%.
`Cc1nn(C)c(Nc2ccc(Br)cc2Br)c1-c1ccc(F)cc1Cl` [compound 183]: in the assay with Septoria tritici, the “Test F rating (% disease control)” value is 100%. In assay [1], the “Test G rating (% disease control)” value came out at 54%. The “Test H rating (% disease control)” value in assay [2] came out at 96%. For the same compound, the “Test A rating (% disease control)” value in the assay on Botrytis cinerea is 100%. The “Test B rating (% disease control)” value in the assay on Alternaria solani came out at 0%. In addition, the “Test I rating (% disease control)” value in assay [3] worked out at 98%. Further, the “Test E rating (% disease control)” value in the assay on Septoria nodorum is recorded as 0%.
As to `Cc1nn(C)c(Nc2c(Cl)cc(Cl)cc2I)c1-c1ccc(F)cc1F` [compound 210], the “Test F rating (% disease control)” value in the assay with Septoria tritici is 100%. The “Test G rating (% disease control)” value in assay [1] stood at 0%. The “Test H rating (% disease control)” value in assay [2] worked out at 97%. The “Test A rating (% disease control)” value with Botrytis cinerea came to 3%. In addition, the “Test B rating (% disease control)” value in the assay with Alternaria solani is 0%. In assay [3], the “Test I rating (% disease control)” value came out at 0%. Further, the “Test E rating (% disease control)” value in the assay with Septoria nodorum is listed as 0%.
`COc1cc(F)c(Nc2c(-c3c(F)cc(C#N)cc3F)c(C)nn2C)c(F)c1` [compound 36]: the “Test F rating (disease control)” value with Septoria tritici is 99%. In assay [1], the “Test G rating (disease control)” value was found to be 0%. The “Test H rating (disease control)” value in assay [2] is on record as 41%. Moreover, in the assay on Botrytis cinerea, the “Test A rating (disease control)” value is reported as 99%. The “Test B rating (disease control)” value in the assay with Alternaria solani is reported as 0%. In addition, the “Test I rating (disease control)” value in assay [3] stood at 0%. Besides, the “Test E rating (disease control)” value with Septoria nodorum was 0%.
In the case of `COc1cc(F)c(-c2c(C)nn(C)c2C(O)c2ccc(F)cc2F)c(F)c1` (centres unmarked) [compound 62], the “Test F rating (disease control)” value with Septoria tritici was found to be 100%. Besides, in assay [1], the “Test G rating (disease control)” value was found to be 0%. In addition, the “Test H rating (disease control)” value in assay [2] worked out at 99%. In addition, the “Test A rating (disease control)” value with Botrytis cinerea came out at 100%. In addition, the “Test B rating (disease control)” value in the assay with Alternaria solani was 100%. Further, the “Test I rating (disease control)” value in assay [3] is recorded as 99%. Besides, the “Test E rating (disease control)” value in the assay with Septoria nodorum worked out at 99%.
For `Cc1nn(C)c(Oc2c(F)cc(C#N)cc2F)c1-c1ccc(F)cc1Cl` [Compound 13, 4-[[4-(2-chloro-4-fluorophenyl)-1,3-dimethyl-1H-pyrazol-5-yl]oxy]-3,5-difluorobenzonitrile], the pest or weed control at 200 µg/mL with Septoria tritici came out at 100%; in assay [1], 7%; in assay [2], 100%; in the assay on Botrytis cinerea, 100%; in the assay with Alternaria solani, 100%; in assay [3] it was 100%. Moreover, the pest or weed control at 200 µg/mL with Septoria nodorum was 100%.
Take `Cc1nn(C)c(Oc2ccc(C#N)cc2Br)c1-c1ccc(F)cc1F` [Compound 139, 3-bromo-4-[[4-(2,4-difluorophenyl)-1,3-dimethyl-1H-pyrazol-5-yl]oxy]benzonitrile]: the pest or weed control at 200 µg/mL in the assay on Septoria tritici worked out at 100%; in assay [1], 9%; in assay [2], 89%; with Botrytis cinerea it was 82%; with Alternaria solani, 0%; in assay [3], 0%. Moreover, the pest or weed control at 200 µg/mL in the assay with Septoria nodorum came out at 0%.
In the case of `Cc1nn(C)c(Oc2ccc(C#N)cc2Cl)c1-c1c(F)cc(F)cc1F` [compound 28], the “Test F rating (disease control)” value in the assay on Septoria tritici was 100%. In assay [1], the “Test G rating (disease control)” value is 26%. For the same compound, in assay [2], the “Test H rating (disease control)” value turned out to be 99%. In addition, the “Test A rating (disease control)” value with Botrytis cinerea turned out to be 100%. Further, in the assay with Alternaria solani, the “Test B rating (disease control)” value is on record as 17%. Besides, the “Test I rating (disease control)” value in assay [3] is listed as 99%. Besides, the “Test E rating (disease control)” value in the assay with Septoria nodorum is reported as 69%.
